Measured values taken from patent publication US20260297085A1, “1 H-PYRROLO[2,3-B]PYRIDIN-4-YL]-2-OXOPYRROLIDINE-3-CARBONITRILE DERIVATIVES AS TYROSINE KINASE 2 (TYK2) INHIBITORS FOR THE TREATMENT OF INFLAMMATORY DISEASES” (BIOGEN MA INC., priority 2023, published 2026).

Legend:
Conditions in all cases: JH1 kinase domain, ADP-Glo
[1] = molecular target: T1, human TYK2 kinase domain (JH1) (Homo sapiens, UniProt P29597); test: JH1 biochemical assay for TYK2 (ADP-Glo kinase assay, recombinant JH1 catalytic domain, JAK3-974 peptide, 10 μM ATP)
T1 construct: recombinantly generated catalytic kinase (also known as JH1) domain of human JAK1, JAK2, JAK3 and TYK2
T1 sequence (P29597 897-1176 limits assumed): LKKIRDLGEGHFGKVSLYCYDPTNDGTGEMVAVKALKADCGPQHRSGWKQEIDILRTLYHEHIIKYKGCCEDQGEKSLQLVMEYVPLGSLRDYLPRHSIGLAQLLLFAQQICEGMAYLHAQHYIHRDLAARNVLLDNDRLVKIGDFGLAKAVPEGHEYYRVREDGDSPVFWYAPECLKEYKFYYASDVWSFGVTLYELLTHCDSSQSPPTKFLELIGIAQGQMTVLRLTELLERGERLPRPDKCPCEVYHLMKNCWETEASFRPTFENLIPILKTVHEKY
Procedure: (§1) Compounds of the disclosure were assessed for their ability to inhibit TYK2, JAK1, JAK2, and JAK3 activity. The inhibitory properties of the compounds of the disclosure described herein can be evidenced by testing in any one of the following protocols.
(§2) The kinase activity of recombinantly generated catalytic kinase (also known as JH1) domain of human JAK1, JAK2, JAK3 and TYK2 were evaluated in a plate-based assay using the ADP-Glo™ Kinase Assay platform. Specifically, 4 nM of recombinant JAK1 kinase domain is used to phosphorylate 50 μM of a JAK3-342 (sequence ALVDGYFRLTT) peptide in the presence of 35 μM ATP. Catalytic activities of recombinant JAK2, JAK3 and TYK2 kinase domain (0.2, 0.3 and 2 nM, respectively) are evaluated by the phosphorylation status of the JAK3-974 (50 μM; sequence LPLDKDYYVVR) peptide with the addition of ATP (15, 4 and 10 μM, respectively). The reactions proceed for 100 minutes and the catalytic activity is quantified by first depleting the unused ATP, converting the hydrolyzed ADP into ATP to generate luminescence in a luciferase reaction; which is the basis of the ADP-Glo platform. Compounds are tested at either 10 μM or 1 μM top concentration, 11 points of 3-fold dilution. The data is normalized and the percent activity versus log concentration of compound is fitted with a 4-parameter logistic model to generate a curve and an IC50 value.

[2] = molecular target: T2, human JAK2 kinase domain (JH1) (Homo sapiens, UniProt O60674); test: JH1 biochemical assay for JAK2 (ADP-Glo kinase assay, recombinant JH1 catalytic domain, JAK3-974 peptide, 15 μM ATP)
T2 construct: recombinantly generated catalytic kinase (also known as JH1) domain of human JAK1, JAK2, JAK3 and TYK2
Procedure: as §1, §2

[3] = molecular target: T3, human JAK3 kinase domain (JH1) (Homo sapiens, UniProt P52333); test: JH1 biochemical assay for JAK3 (ADP-Glo kinase assay, recombinant JH1 catalytic domain, JAK3-974 peptide, 4 μM ATP)
T3 construct: recombinantly generated catalytic kinase (also known as JH1) domain of human JAK1, JAK2, JAK3 and TYK2
Procedure: as §1, §2

[4] = molecular target: T4, human JAK1 kinase domain (JH1) (Homo sapiens, UniProt P23458); test: JH1 biochemical assay for JAK1 (ADP-Glo kinase assay, recombinant JH1 catalytic domain, JAK3-342 peptide, 35 μM ATP)
T4 construct: recombinantly generated catalytic kinase (also known as JH1) domain of human JAK1, JAK2, JAK3 and TYK2
Procedure: as §1, §2

T2 sequence (O60674 849-1124 limits assumed): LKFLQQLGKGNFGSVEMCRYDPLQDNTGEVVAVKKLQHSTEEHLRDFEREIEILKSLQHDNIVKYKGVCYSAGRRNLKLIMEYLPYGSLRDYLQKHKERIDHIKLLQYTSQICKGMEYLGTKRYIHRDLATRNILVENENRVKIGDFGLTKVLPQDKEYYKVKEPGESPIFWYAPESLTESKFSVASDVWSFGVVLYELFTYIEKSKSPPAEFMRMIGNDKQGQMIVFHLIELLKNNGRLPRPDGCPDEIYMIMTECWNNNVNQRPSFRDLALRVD
T4 sequence (P23458 875-1153 limits assumed): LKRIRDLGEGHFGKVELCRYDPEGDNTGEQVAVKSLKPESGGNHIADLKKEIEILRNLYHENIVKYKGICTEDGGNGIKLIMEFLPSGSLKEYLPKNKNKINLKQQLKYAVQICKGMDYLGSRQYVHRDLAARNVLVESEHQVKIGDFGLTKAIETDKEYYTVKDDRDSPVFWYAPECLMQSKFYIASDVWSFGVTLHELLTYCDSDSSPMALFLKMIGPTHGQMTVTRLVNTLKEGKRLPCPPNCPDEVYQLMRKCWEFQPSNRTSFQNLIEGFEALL
T3 sequence (P52333 822-1111 limits assumed): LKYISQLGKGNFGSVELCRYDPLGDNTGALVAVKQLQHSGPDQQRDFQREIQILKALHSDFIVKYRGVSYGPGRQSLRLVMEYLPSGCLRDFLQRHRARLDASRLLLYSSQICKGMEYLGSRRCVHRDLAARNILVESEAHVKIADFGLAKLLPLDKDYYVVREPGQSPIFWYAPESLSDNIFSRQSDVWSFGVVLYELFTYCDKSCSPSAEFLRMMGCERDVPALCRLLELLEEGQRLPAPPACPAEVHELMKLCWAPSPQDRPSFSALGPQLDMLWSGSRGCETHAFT

| IC50 [1] [µM] | IC50 [2] [µM] | IC50 [3] [µM] | IC50 [4] [µM] | SMILES |
| --- | --- | --- | --- | --- |
| > 0.1 | 1 to 5 | 1 to 5 | 1 to 5 | Cn1cc(-c2cc3c(N4C[C@H](C(F)F)[C@@](C#N)(C5CC5)C4=O)ccnn3c2)cn1 (racemic) [Example 152, rac-(3R,4R)-3-cyclopropyl-4-(difluoromethyl)-1-(6-(1-methyl-1H-pyrazol-4-yl)pyrrolo[1,2-b]pyridazin-4-yl)-2-oxopyrrolidine-3-carbonitrile] |
| > 0.1 | 5 to 10 | > 10 | > 10 | Cn1cc(-c2cc3c(N4CC[C@H](C5CC5)C4=O)ccnn3c2)cn1 (single isomer, unassigned) [Example 36] |
| > 0.1 | 1 to 5 | 1 to 5 | > 10 | Cn1cc(-c2cc3c(N4CC[C@@H](C5CC5)C4=O)ccnn3c2)cn1 (single isomer, unassigned) [Example 37] |
| 0.05 to 0.1 | 1 to 5 | 1 to 5 | 1 to 5 | Cn1cc(-c2cc3c(N4CC[C@@](C)(C#N)C4=O)ccnn3c2)cn1 (single isomer, unassigned) [Example 38] |
| > 0.1 | > 10 | > 10 | > 10 | Cn1cc(-c2cc3c(N4CC[C@](C)(C#N)C4=O)ccnn3c2)cn1 (single isomer, unassigned) [Example 39] |
| > 0.1 | 5 to 10 | 5 to 10 | > 10 | COC[C@]1(C#N)CCN(c2ccnn3cc(-c4cnn(C)c4)cc23)C1=O (single isomer, unassigned) [Example 41] |
| 0.05 to 0.1 | 1 to 5 | 1 to 5 | 1 to 5 | CC[C@]1(C#N)CCN(c2ccnn3cc(-c4cnn(C)c4)cc23)C1=O (single isomer, unassigned) [Example 42] |
| > 0.1 | > 10 | > 10 | > 10 | CC[C@@]1(C#N)CCN(c2ccnn3cc(-c4cnn(C)c4)cc23)C1=O (single isomer, unassigned) [Example 43] |
| > 0.1 | > 10 | > 10 | > 10 | Cn1cc(-c2cc3c(N4CC[C@](C#N)(C5COC5)C4=O)ccnn3c2)cn1 (single isomer, unassigned) [Example 44] |
| > 0.1 | > 10 | > 10 | > 10 | Cn1cc(-c2cc3c(N4CC[C@@](C#N)(C5COC5)C4=O)ccnn3c2)cn1 (single isomer, unassigned) [Example 45] |
| > 0.1 | 1 to 5 | 0.1 to 1 | 5 to 10 | Cn1cc(-c2cc3c(N4CC[C@@](C#N)(C5CCC5)C4=O)ccnn3c2)cn1 (single isomer, unassigned) [Example 46] |
| > 0.1 | 5 to 10 | > 10 | > 10 | Cn1cc(-c2cc3c(N4CC[C@](C#N)(C5CCC5)C4=O)ccnn3c2)cn1 (single isomer, unassigned) [Example 47] |
| 0.05 to 0.1 | 0.1 to 1 | 1 to 5 | 0.1 to 1 | Cn1cc(-c2cc3c(N4CC[C@](C#N)(C5CC5)C4=O)ccnc3[nH]2)cn1 [Example 2, (R)-3-cyclopropyl-1-(2-(1-methyl-1H-pyrazol-4-yl)-1H-pyrrolo[2,3-b]pyridin-4-yl)-2-oxopyrrolidine-3-carbonitrile] |
| > 0.1 | 5 to 10 | 5 to 10 | > 10 | Cn1cc(-c2cc3c(N4CCC(C#N)C4=O)ccnn3c2)cn1 (centres unmarked) [Example 7, 1-(6-(1-methyl-1H-pyrazol-4-yl)pyrrolo[1,2-b]pyridazin-4-yl)-2-oxopyrrolidine-3-carbonitrile] |
| > 0.1 | > 10 | > 10 | 5 to 10 | COc1cc(-c2cc3c(N4CC[C@](C#N)(C5CC5)C4=O)ccnn3c2)ccn1 [Example 13, (R)-3-cyclopropyl-1-(6-(2-methoxypyridin-4-yl)pyrrolo[1,2-b]pyridazin-4-yl)-2-oxopyrrolidine-3-carbonitrile] |
| > 0.1 | 5 to 10 | > 10 | > 10 | Cn1cc(-c2cc3c(N4CC[C@](C#N)(C5CC5)C4=O)ccnn3c2)cn1 [Example 14, (R)-3-cyclopropyl-1-(6-(1-methyl-1H-pyrazol-4-yl)pyrrolo[1,2-b]pyridazin-4-yl)-2-oxopyrrolidine-3-carbonitrile] |
| > 0.1 | 1 to 5 | 1 to 5 | 1 to 5 | Cn1cc(-c2cc3c(N4CC[C@@](C(F)F)(C5CC5)C4=O)ccnn3c2)cn1 [Example 15, (R)-3-cyclopropyl-3-(difluoromethyl)-1-(6-(1-methyl-1H-pyrazol-4-yl)pyrrolo[1,2-b]pyridazin-4-yl)pyrrolidin-2-one] |
| > 0.1 | 0.1 to 1 | > 10 | 5 to 10 | C[C@@H]1C[C@](C#N)(C2CC2)C(=O)N1c1ccnn2cc(-c3cnn(C)c3)cc12 [Example 16, (3R,5R)-3-cyclopropyl-5-methyl-1-(6-(1-methyl-1H-pyrazol-4-yl)pyrrolo[1,2-b]pyridazin-4-yl)-2-oxopyrrolidine-3-carbonitrile] |
| > 0.1 | 0.1 to 1 | 5 to 10 | 1 to 5 | C[C@@H]1C[C@@](C#N)(C2CC2)C(=O)N1c1ccnn2cc(-c3cnn(C)c3)cc12 [Example 17, (3S,5R)-3-cyclopropyl-5-methyl-1-(6-(1-methyl-1H-pyrazol-4-yl)pyrrolo[1,2-b]pyridazin-4-yl)-2-oxopyrrolidine-3-carbonitrile] |
| > 0.1 | 0.1 to 1 | 1 to 5 | 1 to 5 | CC[C@@H]1C[C@@](C#N)(C2CC2)C(=O)N1c1ccnn2cc(-c3cnn(C)c3)cc12 [Example 18, (3S,5R)-3-cyclopropyl-5-ethyl-1-(6-(1-methyl-1H-pyrazol-4-yl)pyrrolo[1,2-b]pyridazin-4-yl)-2-oxopyrrolidine-3-carbonitrile] |
| > 0.1 | > 10 | > 10 | > 10 | CC[C@H]1C[C@@](C#N)(C2CC2)C(=O)N1c1ccnn2cc(C3=NC(C)N=C3)cc12 (stereo partly drawn) [Example 19, (3S,5S)-3-cyclopropyl-5-ethyl-1-(6-(2-methyl-2H-imidazol-4-yl)pyrrolo[1,2-b]pyridazin-4-yl)-2-oxopyrrolidine-3-carbonitrile] |
| > 0.1 | 5 to 10 | > 10 | > 10 | C[C@@H]1CN(c2ccnn3cc(-c4cnn(C)c4)cc23)C(=O)[C@]1(C#N)C1COC1 [Example 20, (3S,4S)-4-methyl-1-(6-(1-methyl-1H-pyrazol-4-yl)pyrrolo[1,2-b]pyridazin-4-yl)-3-(oxetan-3-yl)-2-oxopyrrolidine-3-carbonitrile] |
| > 0.1 | > 10 | > 10 | > 10 | C[C@@H]1CN(c2ccnn3cc(-c4cnn(C)c4)cc23)C(=O)[C@@]1(C#N)C1CC1 [Example 21, (3S,4S)-3-cyclopropyl-4-methyl-1-(6-(1-methyl-1H-pyrazol-4-yl)pyrrolo[1,2-b]pyridazin-4-yl)-2-oxopyrrolidine-3-carbonitrile] |
| > 0.1 | 5 to 10 | > 10 | 5 to 10 | CC[C@H]1CN(c2ccnn3cc(-c4cnn(C)c4)cc23)C(=O)[C@]1(C#N)C1CC1 [Example 24, (3R,4R)-3-cyclopropyl-4-ethyl-1-(6-(1-methyl-1H-pyrazol-4-yl)pyrrolo[1,2-b]pyridazin-4-yl)-2-oxopyrrolidine-3-carbonitrile] |
| > 0.1 | > 10 | > 10 | > 10 | CC[C@H]1CN(c2ccnn3cc(-c4cnn(C)c4)cc23)C(=O)[C@@]1(C#N)C1CC1 [Example 25, (3S,4R)-3-cyclopropyl-4-ethyl-1-(6-(1-methyl-1H-pyrazol-4-yl)pyrrolo[1,2-b]pyridazin-4-yl)-2-oxopyrrolidine-3-carbonitrile] |
| > 0.1 | > 10 | > 10 | > 10 | CC[C@@H]1CN(c2ccnn3cc(-c4cnn(C)c4)cc23)C(=O)[C@@]1(C#N)C1CC1 [Example 26, (3S,4S)-3-cyclopropyl-4-ethyl-1-(6-(1-methyl-1H-pyrazol-4-yl)pyrrolo[1,2-b]pyridazin-4-yl)-2-oxopyrrolidine-3-carbonitrile] |
